# Data: ChEMBL document CHEMBL2440076, “New triarylpyrazoles as broad-spectrum anticancer agents: design, synthesis, and biological evaluation” (Eur J Med Chem, 2013)
# pIC50: −log10 of the molar value.
# Experiments:
# [1] = tested on: MCF7; assay: Growth inhibition of human MCF7 cells assessed as cell growth at 10 uM after 48 hrs by sulforhodamine B assay; type: functional; settings: MCF7, 48 h, read-out: Activity
# [2] = tested on: UO-31; assay: Growth inhibition of human UO31 cells assessed as cell growth at 10 uM after 48 hrs by sulforhodamine B assay; type: functional; settings: UO-31, 48 h, read-out: Activity
# [3] = tested on: SW-620; assay: Growth inhibition of human SW620 cells after 48 hrs by sulforhodamine B assay; type: functional; settings: SW-620, 48 h; for CC50: read-out: LC50 (the source's name)
# [4] = tested on: HCT-15; assay: Growth inhibition of human HCT15 cells after 48 hrs by sulforhodamine B assay; type: functional; settings: HCT-15, 48 h
# [5] = Growth inhibition of human HCC2998 cells after 48 hrs by sulforhodamine B assay; type: functional; settings: HCC 2998, 48 h; for CC50: read-out: LC50 (the source's name)
# [6] = tested on: NCI-H460; assay: Growth inhibition of human NCI-H460 cells after 48 hrs by sulforhodamine B assay; type: functional; settings: NCI-H460, 48 h
# [7] = tested on: HOP-92; assay: Growth inhibition of human HOP92 cells after 48 hrs by sulforhodamine B assay; type: functional, cell-based; settings: HOP-92, 48 h
# [8] = tested on: A549; assay: Growth inhibition of human A549/ATCC cells after 48 hrs by sulforhodamine B assay; type: functional; settings: A549, 48 h
# [9] = tested on: RPMI-8226; assay: Growth inhibition of human RPMI8226 cells after 48 hrs by sulforhodamine B assay; type: functional, cell-based; settings: RPMI-8226, 48 h; for CC50: read-out: LC50 (the source's name)
# [10] = tested on: K562; assay: Growth inhibition of human K562 cells after 48 hrs by sulforhodamine B assay; type: functional; settings: K562, 48 h; for CC50: read-out: LC50 (the source's name)
# [11] = tested on: ACHN; assay: Growth inhibition of human ACHN cells assessed as cell growth at 10 uM after 48 hrs by sulforhodamine B assay; type: functional; settings: read-out: Activity
# [12] = tested on: SK-OV-3; assay: Growth inhibition of human SKOV3 cells assessed as cell growth at 10 uM after 48 hrs by sulforhodamine B assay; type: functional; settings: SK-OV-3, 48 h, read-out: Activity
# [13] = Growth inhibition of human NCI-ADR-RES cells assessed as cell growth at 10 uM after 48 hrs by sulforhodamine B assay; type: functional; settings: read-out: Activity
# [14] = tested on: OVCAR-4; assay: Growth inhibition of human OVCAR4 cells assessed as cell growth at 10 uM after 48 hrs by sulforhodamine B assay; type: functional; settings: OVCAR-4, 48 h, read-out: Activity
# [15] = tested on: OVCAR-3; assay: Growth inhibition of human OVCAR3 cells assessed as cell growth at 10 uM after 48 hrs by sulforhodamine B assay; type: functional; settings: OVCAR-3, 48 h, read-out: Activity
# [16] = tested on: UACC-62; assay: Growth inhibition of human UACC62 cells assessed as cell growth at 10 uM after 48 hrs by sulforhodamine B assay; type: functional; settings: UACC-62, 48 h, read-out: Activity
# [17] = tested on: IGROV-1; assay: Growth inhibition of human IGROV1 cells assessed as cell growth at 10 uM after 48 hrs by sulforhodamine B assay; type: functional; settings: IGROV-1, 48 h, read-out: Activity
# [18] = tested on: SK-MEL-28; assay: Growth inhibition of human SK-MEL-28 cells assessed as cell growth at 10 uM after 48 hrs by sulforhodamine B assay; type: functional; settings: SK-MEL-28, 48 h, read-out: Activity
# [19] = tested on: SNB-19; assay: Growth inhibition of human SNB19 cells assessed as cell growth at 10 uM after 48 hrs by sulforhodamine B assay; type: functional; settings: SNB-19, 48 h, read-out: Activity
# [20] = tested on: SF-539; assay: Growth inhibition of human SF539 cells assessed as cell growth at 10 uM after 48 hrs by sulforhodamine B assay; type: functional; settings: SF-539, 48 h, read-out: Activity
# [21] = tested on: SW-620; assay: Growth inhibition of human SW620 cells assessed as cell growth at 10 uM after 48 hrs by sulforhodamine B assay; type: functional; settings: SW-620, 48 h, read-out: Activity
# [22] = tested on: NCI-H522; assay: Growth inhibition of human NCI-H522 cells assessed as cell growth at 10 uM after 48 hrs by sulforhodamine B assay; type: functional; settings: NCI-H522, 48 h, read-out: Activity
# [23] = tested on: HOP-92; assay: Growth inhibition of human HOP92 cells assessed as cell growth at 10 uM after 48 hrs by sulforhodamine B assay; type: functional; settings: HOP-92, 48 h, read-out: Activity
# [24] = tested on: T47D; assay: Growth inhibition of human T47D cells after 48 hrs by sulforhodamine B assay; type: functional; settings: for CC50: read-out: LC50 (the source's name)
# [25] = Growth inhibition of human Hs 578T cells after 48 hrs by sulforhodamine B assay; type: functional; settings: for CC50: read-out: LC50 (the source's name)
# [26] = tested on: MDA-MB-231; assay: Growth inhibition of human MDA-MB-231 cells after 48 hrs by sulforhodamine B assay; type: functional; settings: MDA-MB-231, 48 h
# [27] = tested on: TK-10; assay: Growth inhibition of human TK10 cells after 48 hrs by sulforhodamine B assay; type: functional; settings: TK-10, 48 h; for CC50: read-out: LC50 (the source's name)
# [28] = tested on: CAKI-1; assay: Growth inhibition of human CAKI-1 cells after 48 hrs by sulforhodamine B assay; type: functional; settings: CAKI-1, 48 h; for CC50: read-out: LC50 (the source's name)
# [29] = tested on: A498; assay: Growth inhibition of human A498 cells after 48 hrs by sulforhodamine B assay; type: functional, cell-based; settings: A498, 48 h; for CC50: read-out: LC50 (the source's name)
# [30] = Growth inhibition of human NCI-ADR-RES cells after 48 hrs by sulforhodamine B assay; type: functional; settings: for CC50: read-out: LC50 (the source's name)
# [31] = tested on: OVCAR-3; assay: Growth inhibition of human OVCAR3 cells after 48 hrs by sulforhodamine B assay; type: functional, cell-based; settings: OVCAR-3, 48 h; for CC50: read-out: LC50 (the source's name)
# [32] = tested on: Malme-3M; assay: Growth inhibition of human MALME-3M cells after 48 hrs by sulforhodamine B assay; type: functional
# [33] = tested on: SNB-75; assay: Growth inhibition of human SNB75 cells after 48 hrs by sulforhodamine B assay; type: functional; settings: SNB-75, 48 h
# [34] = tested on: HL-60(TB); assay: Growth inhibition of human HL-60(TB) cells assessed as cell growth at 10 uM after 48 hrs by sulforhodamine B assay; type: functional; settings: HL-60, 48 h, read-out: Activity
structure (smiles),measurement,setting,value
COc1cc(-c2nn(-c3cccc(NC(=O)c4ccc(N5CCOCC5)c(C(F)(F)F)c4)c3)cc2-c2ccncc2)ccc1Cl,growth at 10 µM,[1],8.85%
same,growth at 10 µM,[2],24.6%
same,GI50,[3],241 nM
same,TGI,[3],> 100 µM
same,CC50,[3],> 100 µM
same,GI50,[4],247 nM
same,LC50,[4],> 100 µM
same,TGI,[4],> 100 µM
same,GI50,[5],1.07 µM
same,TGI,[5],5.02 µM
same,CC50,[5],> 100 µM
same,GI50,[6],336 nM
same,LC50,[6],> 100 µM
same,TGI,[6],> 100 µM
same,GI50,[7],124 nM
same,pIC50,[7],6.92
same,LC50,[7],> 100 µM
same,TGI,[7],813 nM
same,GI50,[8],315 nM
same,LC50 (concentration killing 50% of starting cells),[8],> 100 µM
same,TGI,[8],> 100 µM
same,GI50,[9],339 nM
same,pIC50,[9],6.47
same,TGI,[9],> 100 µM
same,CC50,[9],> 100 µM
same,GI50,[10],49.9 nM
same,TGI,[10],> 100 µM
same,CC50,[10],> 100 µM
same,growth at 10 µM,[11],21.3%
same,growth at 10 µM,[12],1.88%
same,growth at 10 µM,[13],-7.13%
same,growth at 10 µM,[14],52.6%
same,growth at 10 µM,[15],-29.9%
same,growth at 10 µM,[16],8.35%
same,growth at 10 µM,[17],41.8%
same,growth at 10 µM,[18],28.4%
same,growth at 10 µM,[19],45.1%
same,growth at 10 µM,[20],-68.9%
same,growth at 10 µM,[21],25.2%
same,growth at 10 µM,[22],0.2%
same,growth at 10 µM,[23],11.5%
same,GI50,[24],0.686 µM
same,TGI,[24],> 100 µM
same,CC50,[24],> 100 µM
same,GI50,[25],262 nM
same,TGI,[25],> 100 µM
same,CC50,[25],> 100 µM
same,GI50,[26],299 nM
same,LC50,[26],> 100 µM
same,TGI,[26],2.39 µM
same,GI50,[27],1.49 µM
same,TGI,[27],45.3 µM
same,CC50,[27],> 100 µM
same,GI50,[28],360 nM
same,TGI,[28],8.12 µM
same,CC50,[28],> 100 µM
same,GI50,[29],0.227 µM
same,pIC50,[29],6.64
same,TGI,[29],1080 nM
same,CC50,[29],> 100 µM
same,GI50,[30],228 nM
same,TGI,[30],> 100 µM
same,CC50,[30],> 100 µM
same,GI50,[31],222 nM
same,pIC50,[31],6.66
same,TGI,[31],1030 nM
same,CC50,[31],> 100 µM
same,GI50,[32],129 nM
same,LC50 (concentration killing 50% of starting cells),[32],> 100 µM
same,TGI,[32],5.1 µM
same,GI50,[33],212 nM
same,"LC50 (lethal concentration, 50% net cell kill)",[33],> 100 µM
same,growth at 10 µM,[34],-8.08%
O=C(Nc1cccc(-n2cc(-c3ccncc3)c(-c3ccc(Cl)c(O)c3)n2)c1)c1ccc(N2CCOCC2)c(C(F)(F)F)c1,growth at 10 µM,[1],60.6%
same,growth at 10 µM,[2],36.9%
same,GI50,[3],1720 nM
same,TGI,[3],5.68 µM
same,CC50,[3],> 50 µM
same,GI50,[4],1810 nM
same,LC50,[4],> 50 µM
same,TGI,[4],25.3 µM
same,GI50,[5],5.66 µM
same,TGI,[5],> 50 µM
same,CC50,[5],> 50 µM
same,GI50,[6],1720 nM
same,LC50,[6],> 50 µM
same,TGI,[6],14.8 µM
same,GI50,[7],555 nM
same,pIC50,[7],6.25
same,LC50,[7],> 50 µM
same,TGI,[7],3810 nM
same,GI50,[8],3080 nM
same,LC50 (concentration killing 50% of starting cells),[8],> 50 µM
same,TGI,[8],> 50 µM
same,GI50,[9],1400 nM
same,pIC50,[9],5.85
same,TGI,[9],12.5 µM
same,CC50,[9],> 50 µM
same,GI50,[10],1880 nM
same,TGI,[10],> 50 µM
same,CC50,[10],> 50 µM
same,growth at 10 µM,[11],36.6%
same,growth at 10 µM,[12],74.2%
same,growth at 10 µM,[13],43.9%
same,growth at 10 µM,[14],108%
same,growth at 10 µM,[15],56%
same,growth at 10 µM,[16],49.2%
same,growth at 10 µM,[17],96.8%
same,growth at 10 µM,[18],1.14%
same,growth at 10 µM,[19],65.7%
same,growth at 10 µM,[20],41.6%
same,growth at 10 µM,[21],6.29%
same,growth at 10 µM,[22],39.6%
same,growth at 10 µM,[23],10.2%
same,GI50,[24],35.9 µM
same,TGI,[24],> 50 µM
same,CC50,[24],> 50 µM
same,GI50,[25],1850 nM
same,TGI,[25],> 50 µM
same,CC50,[25],> 50 µM
same,GI50,[26],975 nM
same,LC50,[26],> 50 µM
same,TGI,[26],15.6 µM
same,GI50,[27],21.3 µM
same,TGI,[27],> 50 µM
same,CC50,[27],> 50 µM
same,GI50,[28],2780 nM
same,TGI,[28],24.6 µM
same,CC50,[28],> 50 µM
same,GI50,[29],15.5 µM
same,pIC50,[29],4.81
same,TGI,[29],> 50000 nM
same,CC50,[29],> 50 µM
same,GI50,[30],2860 nM
same,TGI,[30],> 50 µM
same,CC50,[30],> 50 µM
same,GI50,[31],4810 nM
same,pIC50,[31],5.32
same,TGI,[31],> 50000 nM
same,CC50,[31],> 50 µM
same,GI50,[32],1250 nM
same,LC50 (concentration killing 50% of starting cells),[32],> 50 µM
same,TGI,[32],4.08 µM
same,GI50,[33],1300 nM
same,"LC50 (lethal concentration, 50% net cell kill)",[33],> 50 µM
same,TGI,[33],> 50 µM
same,growth at 10 µM,[34],51.6%
